Experimental data: the Kinase Knowledgebase extract (Sharma et al. 2016)

Target: ROCK2 (human) (UniProt O75116)
Test: Inhibition of ROCK2 Kinase Activity

ROCK2 (human), sequence (O75116 whole entry, looked up): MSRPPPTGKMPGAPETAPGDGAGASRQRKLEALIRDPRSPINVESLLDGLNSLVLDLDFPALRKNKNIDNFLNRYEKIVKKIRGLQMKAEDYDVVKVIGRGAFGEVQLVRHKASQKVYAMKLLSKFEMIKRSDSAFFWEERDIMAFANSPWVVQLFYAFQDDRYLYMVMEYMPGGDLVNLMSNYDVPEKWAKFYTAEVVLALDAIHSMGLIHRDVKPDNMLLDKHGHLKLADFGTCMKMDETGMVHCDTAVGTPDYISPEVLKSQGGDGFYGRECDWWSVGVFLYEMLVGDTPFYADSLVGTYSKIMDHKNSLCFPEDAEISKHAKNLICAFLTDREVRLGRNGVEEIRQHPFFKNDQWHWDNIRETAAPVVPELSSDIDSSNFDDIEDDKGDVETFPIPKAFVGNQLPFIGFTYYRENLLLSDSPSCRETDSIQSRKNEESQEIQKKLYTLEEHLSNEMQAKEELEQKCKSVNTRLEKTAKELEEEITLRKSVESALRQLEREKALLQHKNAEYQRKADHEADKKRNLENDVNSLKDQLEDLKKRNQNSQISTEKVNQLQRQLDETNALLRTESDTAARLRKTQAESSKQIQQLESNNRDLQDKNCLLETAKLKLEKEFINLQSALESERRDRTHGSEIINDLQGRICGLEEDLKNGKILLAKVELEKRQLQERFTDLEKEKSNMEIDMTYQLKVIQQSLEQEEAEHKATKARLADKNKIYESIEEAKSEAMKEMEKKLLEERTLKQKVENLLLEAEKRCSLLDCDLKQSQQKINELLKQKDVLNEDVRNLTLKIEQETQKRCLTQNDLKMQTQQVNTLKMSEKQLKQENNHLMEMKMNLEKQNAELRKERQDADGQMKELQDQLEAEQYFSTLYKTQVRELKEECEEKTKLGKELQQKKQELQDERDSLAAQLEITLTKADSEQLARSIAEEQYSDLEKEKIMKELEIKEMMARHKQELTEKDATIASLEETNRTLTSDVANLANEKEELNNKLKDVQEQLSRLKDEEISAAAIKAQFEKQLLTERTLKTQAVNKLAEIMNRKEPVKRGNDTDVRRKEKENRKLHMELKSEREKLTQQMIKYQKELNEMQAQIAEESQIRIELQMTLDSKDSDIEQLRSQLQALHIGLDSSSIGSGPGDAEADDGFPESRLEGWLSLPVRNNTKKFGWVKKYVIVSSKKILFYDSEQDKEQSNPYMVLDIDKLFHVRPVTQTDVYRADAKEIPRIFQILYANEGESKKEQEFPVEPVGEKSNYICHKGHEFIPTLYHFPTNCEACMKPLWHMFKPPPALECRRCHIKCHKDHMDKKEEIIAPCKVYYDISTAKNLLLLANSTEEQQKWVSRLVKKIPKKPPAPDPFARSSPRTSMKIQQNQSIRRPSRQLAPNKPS

Row | Structure (SMILES) | IC50
1 | CN(CC(N)c1ccc(C(=O)Nc2ccncc2)cc1)C(=O)C1CCc2ccccc21 (stereo not drawn) | 500 to 5000 nM
2 | CN(CC(N)c1ccc(C(=O)Nc2ccncc2)cc1)C(=O)C1(c2ccc(Cl)cc2Cl)CC1 (stereo not drawn) | 500 to 5000 nM
3 | NC(CNC(=O)Cc1c(F)cccc1F)c1ccc(C(=O)Nc2ccncc2)cc1 (stereo not drawn) | 500 to 5000 nM
4 | NC(CNC(=O)c1cccc(Cl)c1)c1ccc(C(=O)Nc2ccncc2)cc1 (stereo not drawn) | 500 to 5000 nM
5 | NC(CNC(=O)Cc1ccc2ccccc2c1)c1ccc(C(=O)Nc2ccncc2)cc1 (stereo not drawn) | 500 to 5000 nM
6 | CN(CC(N)c1ccc(C(=O)Nc2ccncc2)cc1)C(=O)C1(c2ccccc2)CC1 (stereo not drawn) | 500 to 5000 nM
7 | CONC(=O)CC(N)c1ccc(C(=O)Nc2ccncc2)cc1 (stereo not drawn) | 50 to 500 nM
8 | NC(CC(=O)NCc1cccc2ccccc12)c1ccc(C(=O)Nc2ccncc2)cc1 (stereo not drawn) | 50 to 500 nM
9 | NC(CNC(=O)c1ccsc1)c1ccc(C(=O)Nc2ccncc2)cc1 (stereo not drawn) | 50 to 500 nM
10 | NC(CC(=O)NCc1cccc(OC(F)(F)F)c1)c1ccc(C(=O)Nc2ccncc2)cc1 (stereo not drawn) | 50 to 500 nM
11 | CN(CC(N)c1ccc(C(=O)Nc2ccncc2)cc1)C(=O)Cc1ccc(-c2ccccc2)cc1 (stereo not drawn) | 500 to 5000 nM
12 | NC(CC(=O)NCc1ccc(C(F)(F)F)cc1)c1ccc(C(=O)Nc2ccncc2)cc1 (stereo not drawn) | 50 to 500 nM
13 | COc1ccc(C(NC(=O)CC(N)c2ccc(C(=O)Nc3ccncc3)cc2)c2ccc(OC)cc2)cc1 (stereo not drawn) | 50 to 500 nM
14 | NC(CNC(=O)c1ccc2[nH]nnc2c1)c1ccc(C(=O)Nc2ccncc2)cc1 (stereo not drawn) | 500 to 5000 nM
15 | NC(c1ccc(C(=O)Nc2ccncc2)cc1)C1CCCN1C(=O)Cc1c(F)cccc1F (stereo not drawn) | 500 to 5000 nM
16 | CN(CC(N)c1ccc(C(=O)Nc2ccncc2)cc1)C(=O)C1(c2ccc(Cl)cc2)CCCC1 (stereo not drawn) | 500 to 5000 nM
17 | NC(CC(=O)NCCc1cccc(Cl)c1)c1ccc(C(=O)Nc2ccncc2)cc1 (stereo not drawn) | 50 to 500 nM
18 | NC(CNC(=O)c1cnnc2ccccc12)c1ccc(C(=O)Nc2ccncc2)cc1 (stereo not drawn) | 500 to 5000 nM
19 | CN(CC(N)c1ccc(C(=O)Nc2ccncc2)cc1)C(=O)C1CC(=O)c2ccccc21 (stereo not drawn) | 500 to 5000 nM
20 | COc1ccc(CC(=O)NCC(N)c2ccc(C(=O)Nc3ccncc3)cc2)cc1 (stereo not drawn) | 50 to 500 nM
21 | NC(CNC(=O)CNC(=O)c1ccco1)c1ccc(C(=O)Nc2ccncc2)cc1 (stereo not drawn) | 50 to 500 nM
22 | NC(c1ccc(C(=O)Nc2ccncc2)cc1)C1CCCN1C(=O)Cc1ccc(Cl)cc1Cl (stereo not drawn) | 500 to 5000 nM

Row | Structure (SMILES) | IC50
23 | NC(CNC(=O)CC1C=CCC1)c1ccc(C(=O)Nc2ccncc2)cc1 (stereo not drawn) | 50 to 500 nM
24 | NC(c1ccc(C(=O)Nc2ccncc2)cc1)C1CCCN1C(=O)C1(c2ccsc2)CC1 (stereo not drawn) | 500 to 5000 nM
25 | NC(CC(=O)NCCn1cccn1)c1ccc(C(=O)Nc2ccncc2)cc1 (stereo not drawn) | 50 to 500 nM
26 | CC1CCC(NC(=O)CC(N)c2ccc(C(=O)Nc3ccncc3)cc2)CC1 (stereo not drawn) | 50 to 500 nM
27 | CC(C)(C(=O)N1CCCC1C(N)c1ccc(C(=O)Nc2ccncc2)cc1)c1ccc(F)cc1 (stereo not drawn) | 500 to 5000 nM
28 | NC(CC(=O)NC1CCN(Cc2ccccc2)CC1)c1ccc(C(=O)Nc2ccncc2)cc1 (stereo not drawn) | 50 to 500 nM
29 | NC(c1ccc(C(=O)Nc2ccncc2)cc1)C1CCCN1C(=O)C1CCSc2ccccc21 (stereo not drawn) | 500 to 5000 nM
30 | NC(CNC(=O)Cc1ccncc1)c1ccc(C(=O)Nc2ccncc2)cc1 (stereo not drawn) | 500 to 5000 nM
31 | CC(C)CC(=O)NCC(N)c1ccc(C(=O)Nc2ccncc2)cc1 (stereo not drawn) | 500 to 5000 nM
32 | CN(CC(N)c1ccc(C(=O)Nc2ccncc2)cc1)C(=O)Cc1ccccc1 (stereo not drawn) | 500 to 5000 nM
33 | COc1ccc(CC(=O)N(C)CC(N)c2ccc(C(=O)Nc3ccncc3)cc2)cc1 (stereo not drawn) | 50 to 500 nM
34 | NC(CNC(=O)CC1CCCC1)c1ccc(C(=O)Nc2ccncc2)cc1 (stereo not drawn) | 500 to 5000 nM
35 | NC(c1ccc(C(=O)Nc2ccncc2)cc1)C1CCCN1C(=O)C1(c2ccc(Cl)c(Cl)c2)CC1 (stereo not drawn) | 500 to 5000 nM
36 | CC(C)(C(=O)N1CCCC1C(N)c1ccc(C(=O)Nc2ccncc2)cc1)c1ccc(Cl)cc1 (stereo not drawn) | 500 to 5000 nM
37 | COc1ccc(CC(=O)N2CCCC2C(N)c2ccc(C(=O)Nc3ccncc3)cc2)c(OC)c1 (stereo not drawn) | 500 to 5000 nM
38 | NC(CNC(=O)CC(c1ccccc1)c1ccccc1)c1ccc(C(=O)Nc2ccncc2)cc1 (stereo not drawn) | 50 to 500 nM
39 | NC(CNC(=O)c1ccc(C(=O)c2ccccc2)cc1)c1ccc(C(=O)Nc2ccncc2)cc1 (stereo not drawn) | 500 to 5000 nM
40 | CN(C)CCNC(=O)CC(N)c1ccc(C(=O)Nc2ccncc2)cc1 (stereo not drawn) | 50 to 500 nM
41 | NC(CC(=O)N[C@H]1CCCc2ccccc21)c1ccc(C(=O)Nc2ccncc2)cc1 (stereo partly drawn) | 50 to 500 nM
42 | NC(CNC(=O)[C@@H]1CCC(=O)N1)c1ccc(C(=O)Nc2ccncc2)cc1 (stereo partly drawn) | 500 to 5000 nM
43 | CCC(C)C(=O)NCC(N)c1ccc(C(=O)Nc2ccncc2)cc1 (stereo not drawn) | 500 to 5000 nM
44 | CC(NC(=O)CC(N)c1ccc(C(=O)Nc2ccncc2)cc1)c1ccccc1 (stereo not drawn) | 50 to 500 nM

Now from value to molecule:

Row | IC50 | Structure (SMILES)
45 | 50 to 500 nM | Cc1ccc(CNC(=O)CC(N)c2ccc(C(=O)Nc3ccncc3)cc2)cc1Cl (stereo not drawn)
46 | 50 to 500 nM | NC(c1ccc(C(=O)Nc2ccncc2)cc1)C1CCCN1C(=O)Cc1cccs1 (stereo not drawn)
47 | 50 to 500 nM | CC[C@@H](NC(=O)CC(N)c1ccc(C(=O)Nc2ccncc2)cc1)c1ccccc1 (stereo partly drawn)
48 | 500 to 5000 nM | CN(CC(N)c1ccc(C(=O)Nc2ccncc2)cc1)C(=O)C1CCOc2ccc(Cl)cc21 (stereo not drawn)
49 | 500 to 5000 nM | CN(CC(N)c1ccc(C(=O)Nc2ccncc2)cc1)C(=O)Cc1ccc(Br)cc1 (stereo not drawn)
50 | 50 to 500 nM | NC(c1ccc(C(=O)Nc2ccncc2)cc1)C1CCCN1C(=O)C1CCCc2sccc21 (stereo not drawn)
51 | 500 to 5000 nM | CN(CC(N)c1ccc(C(=O)Nc2ccncc2)cc1)C(=O)C(C)(C)c1ccc(F)cc1 (stereo not drawn)
52 | 50 to 500 nM | COc1ccc(CC(=O)N(C)CC(N)c2ccc(C(=O)Nc3ccncc3)cc2)c(OC)c1 (stereo not drawn)
53 | 500 to 5000 nM | NC(CNC(=O)C1CCC1)c1ccc(C(=O)Nc2ccncc2)cc1 (stereo not drawn)
54 | 500 to 5000 nM | CC1CC1C(=O)NCC(N)c1ccc(C(=O)Nc2ccncc2)cc1 (stereo not drawn)
55 | 500 to 5000 nM | CC(C)C(C(=O)N1CCCC1C(N)c1ccc(C(=O)Nc2ccncc2)cc1)c1ccc(Cl)cc1 (stereo not drawn)
56 | 500 to 5000 nM | COc1ccccc1C(=O)NCC(N)c1ccc(C(=O)Nc2ccncc2)cc1 (stereo not drawn)
57 | 50 to 500 nM | CN(C)c1ccc(NC(=O)NCC(N)c2ccc(C(=O)Nc3ccncc3)cc2)cc1 (stereo not drawn)
58 | 50 to 500 nM | NC(CNC(=O)C1(c2ccc(Cl)c(Cl)c2)CC1)c1ccc(C(=O)Nc2ccncc2)cc1 (stereo not drawn)
59 | 50 to 500 nM | NC(CC(=O)NCCc1ccccc1Cl)c1ccc(C(=O)Nc2ccncc2)cc1 (stereo not drawn)
60 | 500 to 5000 nM | Cc1ccccc1NC(=S)NCC(N)c1ccc(C(=O)Nc2ccncc2)cc1 (stereo not drawn)
61 | 50 to 500 nM | Cc1ccccc1CNC(=O)CC(N)c1ccc(C(=O)Nc2ccncc2)cc1 (stereo not drawn)
62 | 50 to 500 nM | NC(CNC(=O)CCc1ccc(F)cc1)c1ccc(C(=O)Nc2ccncc2)cc1 (stereo not drawn)
63 | 50 to 500 nM | N[C@H](CNC(=O)C1(c2ccc(F)cc2)CCCC1)c1ccc(C(=O)Nc2ccncc2)cc1
64 | 500 to 5000 nM | NC(c1ccc(C(=O)Nc2ccncc2)cc1)C1CCCN1C(=O)Cc1cncc(Br)c1 (stereo not drawn)
65 | 500 to 5000 nM | CCCCC(=O)NCC(N)c1ccc(C(=O)Nc2ccncc2)cc1 (stereo not drawn)
66 | 50 to 500 nM | Cc1ccc(CCNC(=O)CC(N)c2ccc(C(=O)Nc3ccncc3)cc2)cc1 (stereo not drawn)
67 | 50 to 500 nM | NC(CNC(=O)Nc1ccc2ccccc2c1)c1ccc(C(=O)Nc2ccncc2)cc1 (stereo not drawn)
68 | 50 to 500 nM | NC(CC(=O)NCc1ccc(OC(F)(F)F)cc1)c1ccc(C(=O)Nc2ccncc2)cc1 (stereo not drawn)
69 | 500 to 5000 nM | CC(C)(C)c1ccc(NC(=S)NCC(N)c2ccc(C(=O)Nc3ccncc3)cc2)cc1 (stereo not drawn)
70 | 500 to 5000 nM | NC(CNC(=O)c1ccc2cc[nH]c2c1)c1ccc(C(=O)Nc2ccncc2)cc1 (stereo not drawn)
71 | 50 to 500 nM | NC(CC(=O)NCc1ccncc1)c1ccc(C(=O)Nc2ccncc2)cc1 (stereo not drawn)
72 | 500 to 5000 nM | Cc1cccc(C(=O)NCC(N)c2ccc(C(=O)Nc3ccncc3)cc2)c1 (stereo not drawn)
73 | 500 to 5000 nM | CN(CC(N)c1ccc(C(=O)Nc2ccncc2)cc1)C(=O)C1CCOc2ccccc21 (stereo not drawn)
